Columns and labels:
PDGFRα = PDGFRα (Homo sapiens (Human), UniProt P16234); test: PDGFRα kinase enzyme assay (Promega PDGFRα Kinase Enzyme System, ADP-Glo); type: biochemical; conditions: 11-point dose response, 10,000 nM to 0.169 nM, 150 uM ATP, BLQ = below limit of quantitation; for IC50: read-out: IC50 Values on PDGFRα Kinase Inhibition, IC50
Procedure, shortened: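 Read-out was ADP-Glo: remaining ATP depleted, ADP converted to luminescence and compared with a standard curve.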

[1] = tested on: GPR17+ cells (newly differentiated oligodendrocytes); test: In vivo OPC differentiation, GPR17+ cells in brain; conditions: Mus musculus, po, 24 h, read-out: GPR17 Fold Induction (Over Vehicle)
Method: The ability of newly constructed compounds to drive OPC differentiation and myelination in vivo was tested. The ability of these compounds to drive OPC differentiation in vivo was tested using GPR17 as an indicator of newly differentiated oligodendrocytes.
Compounds were delivered PO or IP either QD or BID. Mice were dosed once, transiently, or continuously through the treatment period, which ranged from 1-3 days.
Mice were euthanized by isoflurane exposure and transcardially perfused with 14 mL of PBS (Sigma Cat #P4417-50TAB) followed by 22 mL of 3.2% paraformaldehyde in PBS. The brains were removed and postfixed for a minimum of 24 hours in 20 mL of 3.2% paraformaldehyde.
50-micron floating sections were cut using a Leica VT1200S vibratome. Every 24th section, extending through the antero-posterior extent of the brain, was stained. The selected brain sections were washed three times in PBS for 3 minutes each. The floating sections were incubated in the primary antibodies (see Table 10, below) diluted in blocking solution overnight at room temperature on a shaker. […] The next day, the sections were again washed three times in PBS for 3 minutes each and then incubated in the secondary antibodies diluted in blocking solution for 2 hours at room temperature on a shaker. After incubation, the sections were washed three times in PBS for 3 minutes each and mounted on a slide to be imaged using the Olympus Slide Scanner VS200.
The images were analyzed using a custom protocol developed using Visiopharm software to count GPR17+ cells. Cells were considered GPR17+ if they contained an Olig2 positive nucleus, and intense GPR 17 staining that filled their processes. Statistical analysis was done using one-way ANOVA with multiple comparison in GraphPad Prism software.

[2] = tested on: Oligodendrocyte progenitor cells (OPCs); test: In vitro OPC differentiation assay, MBP expression (immunocytochemistry); conditions: 72 hours of treatment; fold change over vehicle
Method: Cortices from postnatal day (P) 1-3 rats were dissected and collected into ice cold Hank's Balanced Salt Solution (HBSS). […] Briefly, the cortical cell suspension was centrifuged and washed with buffer (0.5% BSA in PBS) and labeled with Anti-A2B5 MicroBeads (10 μL beads per 1×10^7 cells) for 15 minutes at 4° C. Following the incubation, cells were washed once with BSA buffer to remove unlabeled beads. A2B^5 positive cells were eluted on the column using the AutoMACS® (Miltenyi, as per manufacturer's protocol using “possel-s” program). Eluted cells were further washed twice with OPC growth media. Cell count was performed using Countess III cell counter (ThermoFisher; AMQAX2000) and cells were plated.
A2B5+ OPCs were plated in poly-d-lysine (PDL) coated T75 flask at a density of ˜3 million cells per flask. […] TrypLE was normalized by adding 10 mL growth media and cells were centrifuged at 1400 rpm for 10 minutes. […] The plates were allowed to sit at room temperature for 15 minutes to ensure proper dispersion of cells in a well. The plates were then transferred to the incubator (37° C.; 5% CO2).
Cells were then incubated for 72 hours at 37° C., 5% CO2 before immunostaining for MBP marker expression.
Following 72 hours of treatment, cells were fixed with 4% paraformaldehyde for 15 minutes then washed three times in DPBS. Prior to staining, cells were blocked for 15 minutes in 10% normal goat serum containing 1% BSA and 0.1% Triton X-100 in DPBS. Primary antibody (MBP @ 1:2000; Abcam AB7349) was applied to cells overnight at 4° C. in incubation solution containing 1% normal goat serum, 1% BSA, and 0.1% Triton X-100 in DPBS.
The number of differentiated MBP+ cells was normalized to the total nuclei count and percent differentiated MBP+ cells were reported.

[3] = tested on: Oligodendrocyte progenitor cells (OPCs); test: In vitro OPC differentiation assay, GPR17 expression (immunocytochemistry); conditions: 72 hours, fold change over vehicle; for GPR17 Fold Induction (Over Vehicle; 3 μM): 3 μM (10× concentration, final 0.3 μM); for GPR17 Fold Induction (Over Vehicle; 5 μM): 5 μM (10× concentration, final 0.5 μM)

PDGFRα, sequence (P16234 24-1089): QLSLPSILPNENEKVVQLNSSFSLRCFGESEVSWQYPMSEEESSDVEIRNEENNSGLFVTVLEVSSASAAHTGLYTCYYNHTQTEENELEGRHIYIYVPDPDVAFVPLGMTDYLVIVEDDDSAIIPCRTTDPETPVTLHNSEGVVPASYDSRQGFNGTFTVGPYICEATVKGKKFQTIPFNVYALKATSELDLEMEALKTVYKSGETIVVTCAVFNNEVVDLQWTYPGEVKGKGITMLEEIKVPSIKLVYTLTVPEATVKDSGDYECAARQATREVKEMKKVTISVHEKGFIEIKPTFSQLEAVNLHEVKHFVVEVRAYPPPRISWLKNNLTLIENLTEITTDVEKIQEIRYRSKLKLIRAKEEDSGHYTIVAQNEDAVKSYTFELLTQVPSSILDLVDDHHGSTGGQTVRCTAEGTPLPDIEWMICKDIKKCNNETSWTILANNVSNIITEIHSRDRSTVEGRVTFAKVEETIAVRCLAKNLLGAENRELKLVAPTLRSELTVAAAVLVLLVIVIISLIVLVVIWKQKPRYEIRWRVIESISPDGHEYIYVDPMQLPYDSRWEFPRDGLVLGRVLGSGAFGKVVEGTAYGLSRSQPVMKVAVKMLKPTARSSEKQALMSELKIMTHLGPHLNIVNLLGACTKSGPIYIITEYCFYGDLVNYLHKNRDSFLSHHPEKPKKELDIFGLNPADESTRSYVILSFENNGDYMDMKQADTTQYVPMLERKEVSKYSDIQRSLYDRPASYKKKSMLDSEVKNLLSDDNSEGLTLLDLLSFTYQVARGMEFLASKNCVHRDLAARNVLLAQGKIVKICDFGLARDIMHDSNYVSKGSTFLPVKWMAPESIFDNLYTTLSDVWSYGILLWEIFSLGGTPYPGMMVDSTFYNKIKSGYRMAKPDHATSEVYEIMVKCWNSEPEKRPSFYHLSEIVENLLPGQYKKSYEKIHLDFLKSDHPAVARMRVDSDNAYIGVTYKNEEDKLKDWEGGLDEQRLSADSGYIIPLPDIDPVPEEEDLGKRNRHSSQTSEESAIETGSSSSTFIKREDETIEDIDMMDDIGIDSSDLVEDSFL

IC50 (PDGFRα)	MBP Fold Induction (Over vehicle) [2]	GPR17 Fold Induction (Over Vehicle; 3 μM) [3]	GPR17 Fold Induction (Over Vehicle; 5 μM) [3]	IC50 Values on PDGFRα Kinase Inhibition, IC50 (nM) (PDGFRα)	SMILES	fold induction at 3 mg/kg [1]	fold induction at 3.3 mg/kg [1]	fold induction at 10 mg/kg [1]	fold induction at 6 mg/kg [1]	fold induction at 30 mg/kg [1]
220 nM	6.20	6.34			Cn1cc(-c2ccc3c(N4CCN(c5ncc(C(O)CCc6ccccc6)cn5)CC4)cnn3c2)cn1 (stereo not shown) [Compound 175, 1-(2-(4-(6-(1-methyl-1H-pyrazol-4-yl)pyrazolo[1,5-a]pyridin-3-yl)piperazin-1-yl)pyrimidin-5-yl)-3-phenylpropan-1-ol]	5.15				
267 nM	4.04	6.77			COc1ccc(Cc2cnc(N3CCN(c4cnn5cc(-c6cnn(C)c6)ccc45)CC3)nc2)cc1 [Compound 254, 3-(4-(5-(4-methoxybenzyl)pyrimidin-2-yl)piperazin-1-yl)-6-(1-methyl-1H-pyrazol-4-yl)pyrazolo[1,5-a]pyridine]			10.7		
39.1 nM	10.47	5.77			C[C@@H](OC(=O)N1CCN(c2cnn3cc(-c4cnn(C)c4)ccc23)CC1)c1ccc(Cl)c(Cl)c1 [Compound 311, (1R)-1-(3,4-dichlorophenyl)ethyl 4-[6-(1-methyl-1H-pyrazol-4-yl)pyrazolo[1,5-a]pyridin-3-yl]piperazine-1-carboxylate]	2.52				
824 nM	5.13	6.67			CC1CC(OC(=O)N2CCN(c3cnn4cc(-c5cnn(C)c5)ccc34)CC2)C1 (stereo not shown) [Compound 309, 3 methylcyclobutyl 4-[6-(1-methyl-1H-pyrazol-4-yl)pyrazolo[1,5-a]pyridin-3-yl]piperazine-1-carboxylate]			1.2		
630 nM	2.14	6.81			COc1cccc(Cc2cnc(N3CCN(c4cnn5cc(-c6cnn(C)c6)ccc45)CC3)nc2)c1 [Compound 54, 3-{4-[5-(3-methoxybenzyl)pyrimidin-2-yl]piperazin-1-yl}-6-(1-methyl-1H-pyrazol-4-yl)pyrazolo[1,5-a]pyridine]	1.24				3.48
998 nM	1.78	6.05	3.25		Cn1cc(-c2ccc3c(N4CCN(C(=O)OCCc5ccccc5)CC4)cnn3c2)cn1 [Compound 30, 2-phenylethyl-4-[6-(1-methyl-1H-pyrazol-4-yl)pyrazolo[1,5-a]pyridin-3-yl]piperazine-1-carboxylate]		9.91			
194 nM	34.99	9.10			Cn1cc(-c2ccc3c(N4CCN(C(=O)OCc5ccc(C#N)cc5)CC4)cnn3c2)cn1 [Compound 316, 4-cyanobenzyl 4-[6-(1-methyl-1H-pyrazol-4-yl)pyrazolo[1,5-a]pyridin-3-yl]piperazine-1-carboxylate]	2.36				

The remaining lines, values behind:

SMILES	IC50 (PDGFRα)	MBP Fold Induction (Over vehicle) [2]	GPR17 Fold Induction (Over Vehicle; 3 μM) [3]	GPR17 Fold Induction (Over Vehicle; 5 μM) [3]	IC50 Values on PDGFRα Kinase Inhibition, IC50 (nM) (PDGFRα)	fold induction at 3 mg/kg [1]	fold induction at 3.3 mg/kg [1]	fold induction at 10 mg/kg [1]	fold induction at 6 mg/kg [1]	fold induction at 30 mg/kg [1]
Cn1cc(-c2ccc3c(N4CCN(c5ncc(C(O)c6ccccn6)cn5)CC4)cnn3c2)cn1 (stereo not shown) [Compound 59, (2-{4-[6-(1-methyl-1H-pyrazol-4-yl)pyrazolo[1,5-a]pyridin-3-yl]piperazin-1-yl}pyrimidin-5-yl) (pyridin-2-yl)methanol]	168 nM	2.56	5.49			10.6				
CCC(CC)C(O)c1cnc(N2CCN(c3cnn4cc(-c5cnn(C)c5)ccc34)CC2)nc1 (stereo not shown) [Compound 177, 2-ethyl-1-(2-(4-(6-(1-methyl-1H-pyrazol-4-yl)pyrazolo[1,5-a]pyridin-3-yl)piperazin-1-yl)pyrimidin-5-yl)butan-1-ol]	75.3 nM	32.85	10.12			2.37				
Cn1cc(-c2ccc3c(N4CCN(c5ncc(C(C)(N)c6ccc(F)cc6)cn5)CC4)cnn3c2)cn1 (stereo not shown) [Compound 35, 1-(4-fluorophenyl)-1-(2-{4-[6-(1-methyl-1H-pyrazol-4-yl)pyrazolo[1,5-a]pyridin-3-yl]piperazin-1-yl}pyrimidin-5-yl)ethanamine]	2090 nM	1.69	7.17	3.57			5.01			
CC[C@@H](OC(=O)N1CCN(c2cnn3cc(-c4cnn(C)c4)ccc23)CC1)c1ccccc1 [Compound 80, (1R)-1-(Phenyl)propyl 4-[6-(1-methyl-1H-pyrazol-4-yl)pyrazolo[1,5-a]pyridin-3-yl]piperazine-1-carboxylate]	328 nM	7.89	8.19			1.64				
Cn1cc(-c2ccc3c(N4CCN(c5ncc(Cc6ccc(F)cc6)cn5)CC4)cnn3c2)cn1 [Compound 66, 3-{4-[5-(4-fluorobenzyl)pyrimidin-2-yl]piperazin-1-yl}-6-(1-methyl-1H-pyrazol-4-yl)pyrazolo[1,5-a]pyridine]	693 nM	26.50	5.07			10.4				
Cc1ccc([C@@H](C)OC(=O)N2CCN(c3cnn4cc(-c5cnn(C)c5)ccc34)CC2)cc1 [Compound 267, (1R)-1-(4-methylphenyl)ethyl 4-[6-(1-methyl-1H-pyrazol-4-yl)pyrazolo[1,5-a]pyridin-3-yl]piperazine-1-carboxylate]		2.33	5.62		BLQ	5.75			7.52	
C[C@@H](OC(=O)N1CCN(c2cnn3cc(-c4cnn(C)c4)ncc23)CC1)c1ccccc1 [Compound 49, (R)-1-phenylethyl 4-(6-(1-methyl-1H-pyrazol-4-yl)pyrazolo[1,5-a]pyrazin-3-yl)piperazine-1-carboxylate]	59.5 nM	2.45	9.99	4.42			1.68			
Cn1cc(-c2ccc3c(N4CCN(C(=O)NCc5ccc(Cl)cc5)CC4)cnn3c2)cn1 [Compound 275, N-(4-chlorobenzyl)-4-[6-(1-methyl-1H-pyrazol-4-yl)pyrazolo[1,5-a]pyridin-3-yl]piperazine-1-carboxamide]	67 nM	2.71	6.70			5.31				
Cn1cc(-c2ccc3c(N4CCN(c5ccc(Cc6ccccc6)cn5)CC4)cnn3c2)cn1 [Compound 249, 3-[4-(5-benzylpyridin-2-yl)piperazin-1-yl]-6-(1-methyl-1H-pyrazol-4-yl)pyrazolo[1,5a]pyridine]	1260 nM	1.64	6.40							10.6
Cn1cc(-c2ccc3c(N4CCN(c5ncc(Cc6ccncc6)cn5)CC4)cnn3c2)cn1 [Compound 179, 6-(1-methyl-1H-pyrazol-4-yl)-3-(4-(5-(pyridin-4-ylmethyl)pyrimidin-2-yl)piperazin-1-yl)pyrazolo[1,5-a]pyridine]	662 nM	10.12	5.37					8.36		
